We go through 32 compounds from patent publication US20020183384A1, “Methods of treating nuclear factor-kappa B mediated diseases and disorders” (priority 2001, published 2002).

Read-outs that look alike come from different tables or passages of the source. Where only a bound is given, the exact number is not on record here.

This assay has as its system NF-κB mediated transcription. Kind of assay: NF-κB driven β-lactamase reporter assay in ECV-304 NF-κB.βlaZ cells (AURORA CCF2 fluorescence). The class given is cell-based, human. Conditions: Homo sapiens, 10 μM compound, ECV-304 NF-κB.βlaZ cells stimulated with 10 ng/mL TNF-α or 100 pg/mL IL-1β, 6 hours at 37° C., inhibition of maximum blue/green ratio, read-out: Percent Inhibition at 10 μM. In outline:
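Blue/green (460/530 nm, excitation 395 nm) CCF2 emission ratio quantified NF-κB-driven β-lactamase expression in the stably transfected endothelial-like ECV-304 clone 1E8.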
In general terms: In a reporter assay the amount or activity of a reporter protein is the signal.

Regarding `CC(C)c1cccc(C(C)C)c1OS(=O)(=O)NC(=O)C1CCc2ccccc2C1` (centres unmarked) [Example 165, (1,2,3,4-Tetrahydro-naphthalene-2-carbonyl)-sulfamic acid 2,6-diisopropyl-phenyl ester], the inhibition (usually the change of the read-out against control, counted positive when it falls) at 10 µM (ECV-304, 6 h) is 28.7%.

Take `Cc1cc(C)c(C)c(OC(=O)NS(=O)(=O)Oc2c(C(C)C)cccc2C(C)C)c1C` [Example 166, Carbamic acid, [[2,6-bis(1-methylethyl)phenoxy]sulfonyl]-, 2,3,5,6-tetramethylphenyl ester]: the inhibition at 10 µM was below 10%.

With `CCC(C)C(C(=O)NS(=O)(=O)Oc1c(C(C)C)cccc1C(C)C)c1ccccc1` (centres unmarked) [Example 167, (3-Methyl-2-phenyl-pentanoyl)-sulfamic acid 2,6-diisopropyl-phenyl ester], the inhibition at 10 µM (ECV-304, 6 h) turned out to be 40%.

As for `CC(C)c1cccc(C(C)C)c1OS(=O)(=O)NC(=O)C1(c2ccccc2)CCCC1` [Example 168, (1-Phenyl-cyclopentanecarbonyl)-sulfamic acid 2,6-diisopropyl-phenyl ester], under “ECV-304, 6 h”, the inhibition at 10 µM was determined as 39.1%.

As to `CCC(C(=O)NS(=O)(=O)Oc1c(C(C)C)cccc1C(C)C)c1ccccc1` (centres unmarked) [Example 169, (2-Phenyl-butyryl)-sulfamic acid 2,6-diisopropyl-phenyl ester], the inhibition at 10 µM (ECV-304, 6 h) worked out at 21.3%.

Turning to `CC(C)c1cccc(C(C)C)c1OS(=O)(=O)NC(=O)C(c1ccccc1)C1CCCCC1` (centres unmarked) [Example 170, (Cyclohexyl-phenyl-acetyl)-sulfamic acid 2,6-diisopropyl-phenyl ester], for the setting “ECV-304, 6 h”, the inhibition at 10 µM was determined as 78.6%.

Turning to `CC(C)c1cccc(C(C)C)c1OS(=O)(=O)NC(=O)C(C)(c1ccccc1)c1ccccc1` [Example 171, (2,2-Diphenyl-propionyl)-sulfamic acid 2,6-diisopropyl-phenyl ester], the inhibition at 10 µM (ECV-304, 6 h) was 62.2%.

In the case of `CC(C)c1cccc(C(C)C)c1OS(=O)(=O)NC(=O)C(c1ccc(Cl)cc1)c1ccc(Cl)cc1` [Example 172, [Bis-(4-chloro-phenyl)-acetyl]-sulfamic acid 2,6-diisopropyl-phenyl ester], the inhibition at 10 µM (ECV-304, 6 h) was 86.9%.

Consider `CC(C)c1cccc(C(C)C)c1OS(=O)(=O)NC(=O)C1c2ccccc2Oc2ccccc21` [Example 173, (9H-Xanthene-9-carbonyl)-sulfamic acid 2,6-diisopropyl-phenyl ester], for which the inhibition at 10 µM (ECV-304, 6 h) is 36.9%.

Turning to `CC(C)c1cccc(C(C)C)c1OS(=O)(=O)NC(=O)C1c2ccccc2-c2ccccc21` [Example 174, (9H-Fluorene-9-carbonyl)-sulfamic acid 2,6-diisopropyl-phenyl ester], the inhibition at 10 µM (ECV-304, 6 h) came out at 32.2%.

As for `CC(C)c1cccc(C(C)C)c1OS(=O)(=O)NC(=O)C(Br)c1ccccc1` (centres unmarked) [Example 175, (Bromo-phenyl-acetyl)-sulfamic acid 2,6-diisopropyl-phenyl ester], the inhibition at 10 µM (ECV-304, 6 h) is below 10%.

With `CC(C)c1cccc(C(C)C)c1OS(=O)(=O)NC(=O)CCc1ccccc1` [Example 176, (3-Phenyl-propionyl)-sulfamic acid 2,6-diisopropyl-phenyl ester], for the setting “ECV-304, 6 h”, the inhibition at 10 µM is below 10%.

Consider `CC(C)c1cc(C(C)C)c(NC(=O)NS(=O)(=O)Oc2c(C(C)C)cccc2C(C)C)c(C(C)C)c1` [Example 177, Sulfamic acid, [[[2,4,6-tris(1-methylethyl)phenyl]amino]carbonyl]-, 2,6-bis(1-methylethyl)phenyl ester], for which the inhibition at 10 µM (ECV-304, 6 h) came out at 63.6%.

`CC(C)c1cccc(C(C)C)c1OS(=O)(=O)NC(=O)Oc1cccnc1` [Example 178, Carbamic acid, [[2,6-bis(1-methylethyl)phenoxy]sulfonyl]-, 3-pyridinyl ester]: the inhibition at 10 µM was below 10%.

Regarding `Cc1cccc(C)c1OC(=O)NS(=O)(=O)Oc1c(C(C)C)cccc1C(C)C` [Example 179, Carbamic acid, [[2,6-bis(1-methylethyl)phenoxy]sulfonyl]-, 2,6-dimethylphenyl ester], the inhibition at 10 µM is below 10%.

On to `CC(C)c1cc(C(C)C)c(CC(=O)NS(=O)(=O)Oc2c(C(C)C)cc(O)cc2C(C)C)c(C(C)C)c1` [Example 180, [(2,4,6-Triisopropyl-phenyl)-acetyl]-sulfamic acid 4-hydroxy-2,6-diisopropyl-phenyl ester], for which, where the note is “ECV-304, 6 h”, the inhibition at 10 µM came to 92%.

Take `CC(C)c1cc(C(C)C)c(CC(=O)N(C)S(=O)(=O)Oc2c(C(C)C)cccc2C(C)C)c(C(C)C)c1` [Example 181, Methyl-[(2,4,6-triisopropyl-phenyl)-acetyl]-sulfamic acid 2,6-diisopropyl-phenyl ester]: the inhibition at 10 µM (ECV-304, 6 h) is below 10%.

For `CC(C)c1cc(C(C)C)c(CC(=O)NS(=O)(=O)Oc2c(C(C)C)cc([N+](=O)[O-])cc2C(C)C)c(C(C)C)c1` [Example 182, [(2,4,6-Triisopropyl-phenyl)-acetyl]-sulfamic acid 2,6-diisopropyl-4-nitro-phenyl ester], the inhibition at 10 µM (ECV-304, 6 h) amounted to 69.8%.

As to `CC(=O)c1cc(C(C)C)c(OC(=O)NS(=O)(=O)Oc2c(C(C)C)cccc2C(C)C)c(C(C)C)c1` [Example 183, Carbamic acid, [[2,6-bis(1-methylethyl)phenoxy]sulfonyl]-, 4-acetyl-2,6-bis(1-methylethyl)phenyl ester], the inhibition at 10 µM is below 10%.

With `CC(C)c1cc(F)cc(C(C)C)c1OC(=O)NS(=O)(=O)Oc1c(C(C)C)cccc1C(C)C` [Example 184, Carbamic acid, [[2,6-bis(1-methylethyl)phenoxy]sulfonyl]-, 4-fluoro-2,6-bis(1-methylethyl)phenyl ester], the inhibition at 10 µM stood at 21.2%.

Consider `CC(C)c1cc(C(C)C)c(CC(=O)NS(=O)(=O)Oc2c(C(C)C)cc(F)cc2C(C)C)c(C(C)C)c1` [Example 185, [(2,4,6-Triisopropyl-phenyl)-acetyl]-sulfamic acid 4-fluoro-2,6-diisopropyl-phenyl ester], for which, for the setting “ECV-304, 6 h”, the inhibition at 10 µM amounted to 73.9%.

For the compound `COc1cccc(OC)c1OS(=O)(=O)NC(=O)Cc1c(C(C)C)cc(C(C)C)cc1C(C)C` [Example 186, [(2,4,6-Triisopropyl-phenyl)-acetyl]-sulfamic acid 2,6-dimethoxy-phenyl ester], the inhibition at 10 µM (ECV-304, 6 h) came out at 18.8%.

On to `CC(C)c1cc(C(C)C)c(CC(=O)NS(=O)(=O)Oc2c(C(C)C)cc(N)cc2C(C)C)c(C(C)C)c1` [Example 187, [(2,4,6-Triisopropyl-phenyl)-acetyl]-sulfamic acid 4-amino-2,6-diisopropyl-phenyl ester], for which the inhibition at 10 µM (ECV-304, 6 h) was determined as 57.8%.

`CCOC(=O)CCCCCc1cc(C(C)C)c(OS(=O)(=O)NC(=O)Cc2c(C(C)C)cc(C(C)C)cc2C(C)C)c(C(C)C)c1` [Example 188, 6-(3,5-Diisopropyl-4-{[(2,4,6-triisopropyl-phenyl)-acetyl]sulfamoyloxy}-phenyl)-hexanoic acid ethyl ester]: the inhibition at 10 µM (ECV-304, 6 h) was 50.8%.

In the case of `COc1cc(OC)c(OS(=O)(=O)NC(=O)Cc2c(C(C)C)cc(C(C)C)cc2C(C)C)c(OC)c1` [Example 189, [(2,4,6-Triisopropyl-phenyl)-acetyl]-sulfamic acid 2,4,6-trimethoxy-phenyl ester], the inhibition at 10 µM (ECV-304, 6 h) came to 15.1%.

Regarding `CC(C)c1cc(C(C)C)c(CC(=O)NS(=O)(=O)Oc2c(C(C)C)cc(C(C)(C)C)cc2C(C)C)c(C(C)C)c1` [Example 190, [(2,4,6-Triisopropyl-phenyl)-acetyl]-sulfamic acid 4-tert-butyl-2,6-diisopropyl-phenyl ester], the inhibition at 10 µM (ECV-304, 6 h) stood at 27.6%.

In the case of `CC(=O)c1ccc(OS(=O)(=O)NC(=O)Cc2c(C(C)C)cc(C(C)C)cc2C(C)C)c(C(C)C)c1` [Example 191, [(2,4,6-Triisopropyl-phenyl)-acetyl]-sulfamic acid 4-acetyl-2-isopropyl-phenyl ester], the inhibition at 10 µM (ECV-304, 6 h) was 55.7%.

Turning to `COc1cc(C(C)C)c(OS(=O)(=O)NC(=O)Cc2c(C(C)C)cc(C(C)C)cc2C(C)C)c(C(C)C)c1` [Example 192, [(2,4,6-Triisopropyl-phenyl)-acetyl]-sulfamic acid 2,6-diisopropyl-4-methoxy-phenyl ester], the inhibition at 10 µM (ECV-304, 6 h) was 63.9%.

Turning to `CC(C)c1cc(C(C)C)c(CC(=O)NS(=O)(=O)Oc2c(Cl)cccc2Cl)c(C(C)C)c1` [Example 193, [(2,4,6-Triisopropyl-phenyl)-acetyl]-sulfamic acid 2,6-dichloro-phenyl ester], the inhibition at 10 µM (ECV-304, 6 h) was 38.3%.

Turning to `CCOC(=O)CCNC(=O)Nc1cc(C(C)C)c(OS(=O)(=O)NC(=O)Cc2c(C(C)C)cc(C(C)C)cc2C(C)C)c(C(C)C)c1` [Example 194, 3-[3-(3,5-Diisopropyl-4-{[(2,4,6-triisopropyl-phenyl)-acetyl]-sulfamoyloxy}-phenyl)-ureido]-propionic acid ethyl ester], the inhibition at 10 µM (ECV-304, 6 h) came to 89.8%.

Take `CC(C)c1cc(C(C)C)c(CC(=O)NS(=O)(=O)Oc2c(C(C)C)cc(NC(=O)C(CCCCNC(=O)OC(C)(C)C)NC(=O)OC(C)(C)C)cc2C(C)C)c(C(C)C)c1` (centres unmarked) [Example 195, [5-tert-Butoxycarbonylamino-5-(3,5-diisopropyl-4-{[(2,4,6-triisopropyl-phenyl)-acetyl]sulfamoyloxy}-phenylcarbamoyl)-pentyl]-carbamic acid tert-butyl ester]: the inhibition at 10 µM (ECV-304, 6 h) stood at 91.8%.

For `CC(=O)Nc1cc(C(C)C)c(OS(=O)(=O)NC(=O)Cc2c(C(C)C)cc(C(C)C)cc2C(C)C)c(C(C)C)c1` [Example 196, [(2,4,6-Triisopropyl-phenyl)-acetyl]-sulfamic acid 4-acetylamino-2,6-diisopropyl-phenyl ester], the inhibition at 10 µM (ECV-304, 6 h) amounted to 73.1%.
